In ChEMBL document CHEMBL2380208, “Novel quinoline derivatives as inhibitors of bacterial DNA gyrase and topoisomerase IV” (Bioorg Med Chem Lett, 2013):
Values after ≈ are worked out from the molar mass of the structure shown.

Experiments:
[1] = Inhibition of Staphylococcus aureus DNA topoisomerase 4
Staphylococcus aureus [2] = experiment: Antibacterial activity against fluoroquinolone-resistant Staphylococcus aureus 1095; format: functional
Staphylococcus aureus [3] = experiment: Antibacterial activity against Staphylococcus aureus 1146; format: functional
DNA gyrase = DNA gyrase (Staphylococcus aureus, UniProt P0A0K8+P20831); experiment: Inhibition of Staphylococcus aureus DNA gyrase; format: protein-complex assay
Staphylococcus aureus [4] = experiment: Antibacterial activity against fluoroquinolone-resistant Staphylococcus aureus harboring DNA gyrase M121K mutant; format: functional
Staphylococcus aureus [5] = experiment: Antibacterial activity against fluoroquinolone-resistant Staphylococcus aureus harboring DNA gyrase D83N mutant; format: functional

Row | SMILES | IC50 [1] [µM] | MIC (Staphylococcus aureus [2]) [mg/L] | MIC (Staphylococcus aureus [3]) [mg/L] | IC50 (DNA gyrase) [µM] | MIC (Staphylococcus aureus [4]) [mg/L] | MIC (Staphylococcus aureus [5]) [mg/L]
1 | COc1ccc2nccc([C@@H](O)CC[C@@H]3CCN(C4CC(c5ccnc(C)n5)C4)C[C@@H]3C(=O)O)c2c1 (stereo partly drawn) | > 120 | > 64 | > 64 | 50 |  | 
2 | COc1ccc2nccc([C@@H](O)CC[C@@H]3CCN(C4CC(c5c(F)cc(F)cc5F)C4)C[C@@H]3C(=O)O)c2c1 (stereo partly drawn) | 120 | 0.5 (≈ 0.946 µM) |  | 6.25 | > 64 | > 64
3 | COc1ccc2nccc([C@@H](O)CC[C@@H]3CCN(C4CC(c5ccccc5OC)C4)C[C@@H]3C(=O)O)c2c1 (stereo partly drawn) | > 240 | 1 (≈ 1.98 µM) | 0.5 (≈ 0.991 µM) | 6.25 |  | 
4 | COc1ccc2nccc([C@@H](O)CC[C@@H]3CCN(C4CC(c5cccc(Cl)c5F)C4)C[C@@H]3C(=O)O)c2c1 (stereo partly drawn) | 75 | ≤ 0.0625 |  | 2.4 | > 64 | > 64
5 | COc1ccc2nccc([C@@H](O)CC[C@@H]3CCN(C4CC(c5ccc(C(F)(F)F)cc5F)C4)C[C@@H]3C(=O)O)c2c1 (stereo partly drawn) | > 200 | 4 (≈ 7.14 µM) |  | 6.25 |  | > 64
6 | COc1ccc(C2CC(N3CC[C@@H](CC[C@H](O)c4ccnc5ccc(OC)cc45)[C@@H](C(=O)O)C3)C2)c(F)c1 (stereo partly drawn) | > 240 | 64 (≈ 122 µM) |  | 50 |  | > 64
7 | COc1ccc2nccc([C@@H](O)CC[C@@H]3CCN(C4CC(c5cccc(F)c5C)C4)C[C@@H]3C(=O)O)c2c1 (stereo partly drawn) | > 120 | 0.5 (≈ 0.987 µM) |  | 25 | > 64 | > 64
8 | COc1ccc2nccc([C@@H](O)CC[C@@H]3CCN(C4CC(c5ccno5)C4)C[C@@H]3C(=O)O)c2c1 (stereo partly drawn) | 60 | 8 (≈ 17.2 µM) | 2 (≈ 4.3 µM) | 3.13 |  | 
9 | COc1ccc2nccc([C@@H](O)CC[C@@H]3CCN(C4CC(c5cccc(SC)c5)C4)C[C@@H]3C(=O)O)c2c1 (stereo partly drawn) | 150 | 8 (≈ 15.4 µM) | 2 (≈ 3.84 µM) | 4.7 |  | 64 (≈ 123 µM)
10 | COc1ccc2nccc([C@@H](O)CC[C@@H]3CCN(C4CC(c5cc(C)ccc5F)C4)C[C@@H]3C(=O)O)c2c1 (stereo partly drawn) | 75 |  |  | 1.56 | > 64 | > 64
11 | COc1ccc2nccc([C@@H](O)CC[C@@H]3CCN(C4CC(c5cccc(C(F)(F)F)c5F)C4)C[C@@H]3C(=O)O)c2c1 (stereo partly drawn) | 200 | 0.5 (≈ 0.892 µM) |  | 6.25 | > 64 | 
12 | COc1ccc2nccc([C@@H](O)CC[C@@H]3CCN(C4CC(c5ccc(-c6ccccc6)cc5)C4)C[C@@H]3C(=O)O)c2c1 (stereo partly drawn) | 120 | > 64 | > 64 | > 50 |  | 
13 | COc1ccc(F)c(C2CC(N3CC[C@@H](CC[C@H](O)c4ccnc5ccc(OC)cc45)[C@@H](C(=O)O)C3)C2)c1 (stereo partly drawn) | > 120 | 4 (≈ 7.65 µM) |  | 50 | > 64 | > 64
14 | COc1ccc2nccc([C@@H](O)CC[C@@H]3CCN(C4CC(c5ccncn5)C4)C[C@@H]3C(=O)O)c2c1 (stereo partly drawn) | 120 | > 64 | 64 (≈ 134 µM) | 19 |  | 
15 | COc1ccc2nccc([C@@H](O)CC[C@@H]3CCN(C4CC(c5cc(SC)ccc5F)C4)C[C@@H]3C(=O)O)c2c1 (stereo partly drawn) | 50 | 2 (≈ 3.71 µM) | 0.25 (≈ 0.464 µM) | 3.13 |  | 64 (≈ 119 µM)
16 | COc1ccc2nccc([C@@H](O)CC[C@@H]3CCN(C4CC(c5ccn[nH]5)C4)C[C@@H]3C(=O)O)c2c1 (stereo partly drawn) | > 120 | > 64 | > 64 | > 25 |  | 
17 | COc1ccc2nccc([C@@H](O)CC[C@@H]3CCN(C4CC(c5c(F)cccc5Cl)C4)C[C@@H]3C(=O)O)c2c1 (stereo partly drawn) | 60 |  |  | 4.7 | 32 (≈ 60.7 µM) | 64 (≈ 121 µM)
18 | COc1ccc2nccc([C@@H](O)CC[C@@H]3CCN(C4CC(c5ncc(C)o5)C4)C[C@@H]3C(=O)O)c2c1 (stereo partly drawn) | > 100 | 8 (≈ 16.7 µM) | 2 (≈ 4.17 µM) | 6.25 |  | 

Row | SMILES | IC50 [1] [µM] | MIC (Staphylococcus aureus [2]) [mg/L] | MIC (Staphylococcus aureus [3]) [mg/L] | IC50 (DNA gyrase) [µM] | MIC (Staphylococcus aureus [4]) [mg/L] | MIC (Staphylococcus aureus [5]) [mg/L]
19 | COc1ccc2nccc([C@@H](O)CC[C@@H]3CCN(C4CC(c5cc(F)ccc5OC)C4)C[C@@H]3C(=O)O)c2c1 (stereo partly drawn) | 37 | 4 (≈ 7.65 µM) | 0.5 (≈ 0.957 µM) | 12.5 |  | 
20 | COc1ccc2nccc([C@@H](O)CC[C@@H]3CCN(C4CC(c5ccc(F)c(C#N)c5)C4)C[C@@H]3C(=O)O)c2c1 (stereo partly drawn) | > 200 | > 64 |  | 3.13 |  | 
21 | COc1ccc2nccc([C@@H](O)CC[C@@H]3CCN(C4CC(c5cc(Br)ccc5F)C4)C[C@@H]3C(=O)O)c2c1 (stereo partly drawn) | 50 | 0.25 (≈ 0.437 µM) | ≤ 0.0625 | 3.13 |  | 
22 | COc1ccc2nccc([C@@H](O)CC[C@@H]3CCN(C4CC(c5ccccc5SC)C4)C[C@@H]3C(=O)O)c2c1 (stereo partly drawn) | 50 | 2 (≈ 3.84 µM) | 0.25 (≈ 0.48 µM) | 3.13 |  | 64 (≈ 123 µM)
23 | COc1ccc2nccc([C@@H](O)CC[C@@H]3CCN(C4CC(c5cc(F)ccc5C)C4)C[C@@H]3C(=O)O)c2c1 (stereo partly drawn) | 45 | 0.5 (≈ 0.987 µM) | 0.125 (≈ 0.247 µM) | 2.3 |  | 
24 | COc1ccc2nccc([C@@H](O)CC[C@@H]3CCN(C4CC(c5cccc(OC)c5F)C4)C[C@@H]3C(=O)O)c2c1 (stereo partly drawn) | > 200 | 64 (≈ 122 µM) |  | 19 |  | > 64
25 | COc1ccc2nccc([C@@H](O)CC[C@@H]3CCN(C4CC(c5cc(C(F)(F)F)ccc5F)C4)C[C@@H]3C(=O)O)c2c1 (stereo partly drawn) | > 100 | 4 (≈ 7.14 µM) |  | 25 |  | 
26 | COc1ccc2nccc([C@@H](O)CC[C@@H]3CCN(C4CC(c5ccc(Br)cc5F)C4)C[C@@H]3C(=O)O)c2c1 (stereo partly drawn) | > 200 | 8 (≈ 14 µM) |  | 6.25 | > 64 | > 64
27 | COc1ccc2nccc([C@@H](O)CC[C@@H]3CCN(C4CC(c5ccc(Cl)cc5F)C4)C[C@@H]3C(=O)O)c2c1 (stereo partly drawn) | > 100 | 1 (≈ 1.9 µM) |  | 6.25 | > 64 | > 64
28 | COc1ccc2nccc([C@@H](O)CC[C@@H]3CCN(C4CC(c5ccc(C#N)cc5)C4)C[C@@H]3C(=O)O)c2c1 (stereo partly drawn) | 240 | > 64 | > 64 | > 50 |  | 
29 | COc1ccc2nccc([C@@H](O)CC[C@@H]3CCN(C4CC(c5ccccc5C(F)(F)F)C4)C[C@@H]3C(=O)O)c2c1 (stereo partly drawn) | 60 | 0.25 (≈ 0.461 µM) | 0.125 (≈ 0.23 µM) | 1.56 |  | 
30 | COc1ccc2nccc([C@@H](O)CC[C@@H]3CCN(C4CC(c5cc(F)c(F)cc5F)C4)C[C@@H]3C(=O)O)c2c1 (stereo partly drawn) | 37 |  | ≤ 0.0625 | 1.56 | 64 (≈ 121 µM) | 32 (≈ 60.5 µM)
31 | COc1ccc2nccc([C@@H](O)CC[C@@H]3CCN(C4CC(c5ccn(C)n5)C4)C[C@@H]3C(=O)O)c2c1 (stereo partly drawn) | > 120 | > 64 | > 64 | 19 |  | 
32 | COc1ccc2nccc([C@@H](O)CC[C@@H]3CCN(C4CC(c5c(F)cccc5C(F)(F)F)C4)C[C@@H]3C(=O)O)c2c1 (stereo partly drawn) | > 100 | 2 (≈ 3.57 µM) | 0.5 (≈ 0.892 µM) | 19 |  | 
33 | COc1ccc2nccc([C@@H](O)CC[C@@H]3CCN(C4CC(c5c(F)ccc(Cl)c5F)C4)C[C@@H]3C(=O)O)c2c1 (stereo partly drawn) | 25 | 0.25 (≈ 0.459 µM) |  | 3.13 | > 64 | > 64
34 | COc1ccc2nccc([C@@H](O)CC[C@@H]3CCN(C4CC(c5cccc(C#N)c5)C4)C[C@@H]3C(=O)O)c2c1 (stereo partly drawn) | > 200 | 16 (≈ 32 µM) |  | 9.4 |  | 
35 | COc1ccc2nccc([C@@H](O)CC[C@@H]3CCN(C4CC(c5c(F)cccc5OC)C4)C[C@@H]3C(=O)O)c2c1 (stereo partly drawn) | 100 | 2 (≈ 3.83 µM) | 0.25 (≈ 0.478 µM) | 12.5 |  | 
36 | COc1ccc2nccc([C@@H](O)CC[C@@H]3CCN(C4CC(c5cc(C#N)ccc5F)C4)C[C@@H]3C(=O)O)c2c1 (stereo partly drawn) | 120 | 8 (≈ 15.5 µM) | 2 (≈ 3.86 µM) | 9.4 |  | 64 (≈ 124 µM)
